In brackets after ≈: the same amount, converted by molar mass. Several values for one entry are separate records, joined by “and”; a condition that tells them apart may be missing. Identical values can stand only once.
Columns and labels:
[1] = target: T1, H. pylori Shikimate Dehydrogenase (HpSDH) (Helicobacter pylori, UniProt P56119); assay: Inhibition activity assay toward HpSDH; type: biochemical; settings: for IC50: IC50 toward HpSDH, wild type (26695) HpSDH recombinant protein; for inhibition activity toward HpSDH (in words): preliminary screening concentration 100 μM
T1 construct: made in house; host or cells: E. coli BL21
T1 sequence (P56119 whole entry): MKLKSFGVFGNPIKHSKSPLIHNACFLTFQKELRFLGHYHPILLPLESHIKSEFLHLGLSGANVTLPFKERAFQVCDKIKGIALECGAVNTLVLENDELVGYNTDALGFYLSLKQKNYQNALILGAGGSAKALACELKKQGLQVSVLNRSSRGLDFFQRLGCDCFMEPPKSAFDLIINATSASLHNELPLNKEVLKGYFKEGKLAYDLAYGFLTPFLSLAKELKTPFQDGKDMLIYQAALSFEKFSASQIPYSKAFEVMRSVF
From the text: The recombinant HpSDH (aroE) was cloned in pET-28a plasmid and transformed into E. coli strain BL21 as expression host.
Relative HpSDH activity calculations were based on the initial velocity that absorbance at the 5 to 10% of the time when reaction absorbance reached the maximum level. The variable slope of this time interval represented the reaction rate of HpSDH at various concentration of compound and normalized with the negative control HpSDH (without inhibitor) which represented 100% activity.
To evaluate structure activity relationship (SAR), all the synthesized compounds in SDH inhibition activity on wild type HpSDH recombinant protein was evaluated. All the datas of effective compounds were expressed as IC50 value after treated with different compounds. In priminary screening, using 100 μM as priminary screening concentration to evaluate all synthesized compounds.
(§1) The enzymatic activity of HpSDH was measured in the direction of reduction of NADP^+ to NADPH in the present of shikimic acid at 340 nm absorbance and conducted in 96-well plate ELISA reader. The final concentration of shikimic acid and NADP^+ were 2 mM, and the final protein concentration was 100 nM. Shikimic acid was added by injector needle equipped in ELISA reader to ensure the measurements were made at the same time spacing. NADPH would accumulate along with reaction, and the absorbance at 340 nm would be measured in every cycle of HpSDH reaction.

H. pylori [2] = assay: Minimum bactericidal concentration assay (MBC assay) against H. pylori; type: cell-based, Helicobacter pylori; settings: for MBC: Helicobacter pylori; for anti-bacterial activity toward H. pylori (in words): wild type (26695) and clinical isolated strains
Method: To evaluate the anti-H. pylori activity, the minimum bactericidal concentration (MBC) value of compounds was determined. The MBC value of standard antibiotics, clarithromycine (CLR) and metronidazole (MTZ) were served as the positive control.
Wild type (26695, as reference strain) was cultured on brucella broth agar plate containing 1% IsovialeX (Becton, Dickinson and Company, USA) and 10% sheep blood in microaerophilic environment (5% O2, 10% CO2, and 85% N2), 37° C. Clinical strains (v574, v633, v1086, v1254, v1267, v1354 and v2311) were cultured on brucella broth agar plate containing 1% IsovialeX and 20%-30% sheep blood in microaerophilic environment (5% O2, 10% CO2, and 85% N2), 37° C.
Wild type and selected clinical H. pylori strains was cultured for 24 to 36 hours and measured by Cell density meter, O.D. 680 at 0.87-0.9. H. pylori and selected compounds with serial concentration were mixed in Brucella-broth (BD) with 10% of FBS in 24-well plate, and total volume of each well was 300 μl, cultured under 37° C. with 180 rpm shaking. After incubated for 24 hours, 3 μl of each well was seeding on blood agar plate for another 48 hours culture. […] The final concentration of DMSO in the assay was less than 5% to avoid any effect in the growth of H. pylori at this experiment.

[3] = target: T1, H. pylori Shikimate Dehydrogenase (HpSDH); assay: Enzymatic kinetics of effective compounds toward HpSDH; type: biochemical; settings: for inhibition type toward NADP+ / inhibition type toward shikimic acid: HpSDH
Method: as §1
To study the inhibition mode of these compounds and inhibition type to shikimic acid and NADP^+, different concentrations of inhibitors and graded concentrations of substrates by activity assay was examined.

H. pylori [4] = assay: Synergistic effect of compound 25a in MBC test against H. pylori; type: cell-based, Helicobacter pylori; settings: for MBC: Helicobacter pylori, 24 h, read-out: MBC, single treatment

| Structure (SMILES) | IC50 [1] | inhibition activity toward HpSDH (in words) [1] | MBC (H. pylori [2]; W.T 26695) | MBC (H. pylori [2]; clinical isolated strain v574) | MBC (H. pylori [2]; clinical isolated strain v633) | MBC (H. pylori [2]; clinical isolated strain v1086) | MBC (H. pylori [2]; clinical isolated strain v1254) | MBC (H. pylori [2]; clinical isolated strain v1267) | MBC (H. pylori [2]; clinical isolated strain v1354) | MBC (H. pylori [2]; clinical isolated strain v2311) | MBC value against H. pylori (H. pylori [2]; W.T 26695) | MBC value against H. pylori (H. pylori [2]; clinical isolated strain v633) | Ki [3] | inhibition type toward NADP+ [3] | inhibition type toward shikimic acid [3] | also measured |
| --- | --- | --- | --- | --- | --- | --- | --- | --- | --- | --- | --- | --- | --- | --- | --- | --- |
| O=C1NC(=O)C(=C/C=C/c2ccccc2)C(=O)N1 [7a] | 32.7 µM | more effective inhibitors |  |  |  |  |  |  |  |  |  |  |  |  |  |  |
| O=C1NC(=O)C(=C/C=C/c2ccc([N+](=O)[O-])cc2)C(=O)N1 [7b] |  |  | 8 µg/mL (≈ 27.9 µM) | 8 µg/mL (≈ 27.9 µM) | 4 µg/mL (≈ 13.9 µM) | 8 µg/mL (≈ 27.9 µM) | 8 µg/mL (≈ 27.9 µM) | 8 µg/mL (≈ 27.9 µM) | 8 µg/mL (≈ 27.9 µM) | 16 µg/mL (≈ 55.7 µM) | 8.0 µg/mL (≈ 27.9 µM) | 4.0 µg/mL (≈ 13.9 µM) |  |  |  |  |
| COc1ccccc1/C=C/C=C1C(=O)NC(=O)NC1=O [7c] | 33.7 µM | more effective inhibitors |  |  |  |  |  |  |  |  |  |  |  |  |  | MBC (H. pylori [2]; 24 h, W.T 26695): 16 µg/mL (≈ 58.8 µM); MBC (H. pylori [2]; 24 h, clinical isolated strain v574): 16 µg/mL (≈ 58.8 µM); MBC (H. pylori [2]; 24 h, clinical isolated strain v633): 16 µg/mL (≈ 58.8 µM); MBC (H. pylori [2]; 24 h, clinical isolated strain v1086): 8 µg/mL (≈ 29.4 µM); MBC (H. pylori [2]; 24 h, clinical isolated strain v1254): 16 µg/mL (≈ 58.8 µM); MBC (H. pylori [2]; 24 h, clinical isolated strain v1267): 16 µg/mL (≈ 58.8 µM); MBC (H. pylori [2]; 24 h, clinical isolated strain v1354): 16 µg/mL (≈ 58.8 µM); MBC (H. pylori [2]; 24 h, clinical isolated strain v2311): 16 µg/mL (≈ 58.8 µM) |
| COc1ccc(/C=C/C=C2C(=O)NC(=O)NC2=O)cc1 [7d] | 35.1 µM | more effective inhibitors | 8 µg/mL (≈ 29.4 µM) | 8 µg/mL (≈ 29.4 µM) | 4 µg/mL (≈ 14.7 µM) | 8 µg/mL (≈ 29.4 µM) | 8 µg/mL (≈ 29.4 µM) | 8 µg/mL (≈ 29.4 µM) | 8 µg/mL (≈ 29.4 µM) | 16 µg/mL (≈ 58.8 µM) | 8.0 µg/mL (≈ 29.4 µM) | 4.0 µg/mL (≈ 14.7 µM) |  |  |  | anti-bacterial activity toward H. pylori (in words) (H. pylori [2]): three most potent inhibitors |
| CSc1ccc(/C=C/C=C2C(=O)NC(=O)NC2=O)cc1 [7e] | 22 µM and 11 to 22 µM | more effective inhibitors | 8 µg/mL (≈ 27.7 µM) | 8 µg/mL (≈ 27.7 µM) | 8 µg/mL (≈ 27.7 µM) | 8 µg/mL (≈ 27.7 µM) | 8 µg/mL (≈ 27.7 µM) | 8 µg/mL (≈ 27.7 µM) | 8 µg/mL (≈ 27.7 µM) | 8 µg/mL (≈ 27.7 µM) | 8.0 µg/mL (≈ 27.7 µM) |  | 2.67 µM | competitive inhibition | non-competitive or uncompetitive | anti-bacterial activity toward H. pylori (in words) (H. pylori [2]): three most potent inhibitors |
| COc1cccc(OC)c1/C=C/C=C1C(=O)NC(=O)NC1=O [7h] |  | more effective inhibitors | 8 µg/mL (≈ 26.5 µM) | 8 µg/mL (≈ 26.5 µM) | 4 µg/mL (≈ 13.2 µM) | 16 µg/mL (≈ 52.9 µM) | 32 µg/mL (≈ 106 µM) | 8 µg/mL (≈ 26.5 µM) | 4 µg/mL (≈ 13.2 µM) | 16 µg/mL (≈ 52.9 µM) | 8.0 µg/mL (≈ 26.5 µM) | 4.0 µg/mL (≈ 13.2 µM) |  |  |  | MBC value against H. pylori (H. pylori [2]; clinical isolated strain v1354): 4.0 µg/mL (≈ 13.2 µM) |
| COc1cc(/C=C/C=C2C(=O)NC(=O)NC2=O)cc(OC)c1 [7i] | 20.3 µM and 11 to 22 µM | more effective inhibitors | 8 µg/mL (≈ 26.5 µM) | 8 µg/mL (≈ 26.5 µM) | 4 µg/mL (≈ 13.2 µM) | 8 µg/mL (≈ 26.5 µM) | 32 µg/mL (≈ 106 µM) | 8 µg/mL (≈ 26.5 µM) | 4 µg/mL (≈ 13.2 µM) | 16 µg/mL (≈ 52.9 µM) | 8.0 µg/mL (≈ 26.5 µM) | 4.0 µg/mL (≈ 13.2 µM) | 3.81 µM | competitive inhibition | non-competitive or uncompetitive | MBC value against H. pylori (H. pylori [2]; clinical isolated strain v1354): 4.0 µg/mL (≈ 13.2 µM) |
| C=CCN1C(=O)C(=C/C=C/c2ccccc2)C(=O)N(CC=C)C1=O [25a, (E)-1,3-diallyl-5-(3-phenylallylidene)pyrimidine-2,4,6(1H,3H,5H)-trione] | 11.4 µM and 11 to 22 µM | more effective inhibitors | 8 µg/mL (≈ 24.8 µM) | 8 µg/mL (≈ 24.8 µM) | 16 µg/mL (≈ 49.6 µM) | 8 µg/mL (≈ 24.8 µM) | 8 µg/mL (≈ 24.8 µM) | 8 µg/mL (≈ 24.8 µM) | 8 µg/mL (≈ 24.8 µM) | 8 µg/mL (≈ 24.8 µM) | 8.0 µg/mL (≈ 24.8 µM) |  | 2.01 µM | competitive inhibition | non-competitive or uncompetitive | MBC (H. pylori [4]): 6 µg/mL; MBC, single treatment (H. pylori [4]; v574 MTR-resistant strain): 6.0 µg/mL; MBC, single treatment (H. pylori [4]; v1086 CLR-resistant strain): 6.0 µg/mL; anti-bacterial activity toward H. pylori (in words) (H. pylori [2]): three most potent inhibitors |
| Cc1cc(C)cc(N2C(=O)NC(=O)/C(=C\C=C\c3ccccc3)C2=O)c1 [CB6010554] |  |  | 10 µg/mL (≈ 28.9 µM) |  |  |  |  |  |  |  | 10.0 µg/mL (≈ 28.9 µM) |  |  |  |  |  |
| C=CCN1C(=O)NC(=O)/C(=C/C=C/c2ccccc2)C1=O [CB6942859] |  |  | 5 µg/mL (≈ 17.7 µM) |  |  |  |  |  |  |  | 5.0 µg/mL (≈ 17.7 µM) |  |  |  |  |  |
| CC[C@H]1OC(=O)[C@H](C)[C@@H](O[C@H]2C[C@@](C)(OC)[C@@H](O)[C@H](C)O2)[C@H](C)[C@@H](O[C@@H]2O[C@H](C)C[C@H](N(C)C)[C@H]2O)[C@](C)(OC)C[C@@H](C)C(=O)[C@H](C)[C@@H](O)[C@]1(C)O [CLR, clarithromycin] |  |  |  |  |  |  |  |  |  |  |  |  |  |  |  | growth of resistant strain v1086 (in words) (H. pylori [4]; CLR 4 mg/L alone or with compound 25a 2 mg/L): cannot completely inhibit the growth; MBC (H. pylori [4]; 26695 wild type): < 1 µg/mL; MBC (H. pylori [4]; v574 MTR-resistant strain): < 1 µg/mL; MBC (H. pylori [4]; v1086 CLR-resistant strain): 8 µg/mL |
| Cc1ncc([N+](=O)[O-])n1CCO [MTR, metronidazole] |  |  |  |  |  |  |  |  |  |  |  |  |  |  |  | MBC (H. pylori [4]; 26695 wild type): < 1 µg/mL; MBC (H. pylori [4]; v574 MTR-resistant strain): 32 µg/mL; MBC (H. pylori [4]; v1086 CLR-resistant strain): < 1 µg/mL; growth of v574 strain (in words) (H. pylori [4]; MTR 16 mg/L alone or with compound 25a 2 mg/L): cannot suppressed the growth; dosage needed to inhibit strain v574 relative to compound 25a (H. pylori [4]; v574 metronidazole resistant strain): 5 times |
| O=C1NC(=O)C(=C/C=C/c2ccc(NC(=O)c3ccccc3)cc2)C(=O)N1 [compound 17, (E)-N-(4-(3-(2,4,6-trioxotetrahydropyrimidin-5(2H)-ylidene)prop-1-en-1-yl)phenyl)benzamide] | 16.1 µM and 11 to 22 µM | more effective inhibitors | 16 µg/mL (≈ 44.3 µM) | 16 µg/mL (≈ 44.3 µM) | 16 µg/mL (≈ 44.3 µM) | 16 µg/mL (≈ 44.3 µM) | 16 µg/mL (≈ 44.3 µM) | 16 µg/mL (≈ 44.3 µM) | 8 µg/mL (≈ 22.1 µM) | 16 µg/mL (≈ 44.3 µM) |  |  | 6.93 µM | competitive inhibition | non-competitive or uncompetitive |  |

Source: patent US9145374B2, “Shikimate pathway inhibitors and the use thereof” (National Tsing Hua University, priority 2013, dated 2015)
